Assay results reported in patent publication US9880171B2, “iASPP phosphorylation and metastatic potential” (LUDWIG INSTITUTE FOR CANCER RESEARCH LTD., priority 2012, dated 2018).

Assays:
[1] = system: WM278, Me300 and SK-MEL37 melanoma cells; experiment: colony formation assay, Example 10, human melanoma cells; assay type: cell-based; details: agent alone; melanoma cell lines
Excerpt: FIG. 21. Restoring apoptotic function of p53 cooperates with BRAFV600E inhibition to suppress human melanoma cell growth. […] The bar graphs (mean±SD) were derived from three independent experiments. *p<0.05. Lower images show representative Annexin V/7-AAD profile and dishes, respectively. FIG. 21C. Diagrams showing how cyclinB1/cdk1 phosphorylation controls iASPP localization in interphase (interphase) or mitosis or tumor cells (mitosis/melanomas). Blue and red stars (*) indicate the C- and N-terminal contact residues and the phosphorylation status is labeled as (P). The bottom diagram summarizes the pathways that PLX4032, Nutlin3 and JNJ used to suppress melanoma cell growth.

B16 melanoma cells [2] = experiment: apoptosis by Sub-G1 FACS analysis, Example 10, B16 cells; assay type: cell-based, mouse
Method: FIG. 20. Restoring p53 by inhibiting mdm2 and iASPP suppresses melanoma growth in vitro and in vivo. FIG. 20A. H1299 cells were treated with DMSO or 10 μM nocodazole in the presence or absence of 2 or 10 μM of mitosis-related kinase inhibitors as indicated. […] FIG. 20B. Left panel: representative p53 level after Nutlin3 treatment for 24 hours in a variety of cells. Right bar graphs show the sub-G1 proportion of WM278 after treatment as that described in FIG. 19B (in upper panel, 10 μM and 20 μM Nutlin3 were used in parallel for comparison). From left to right of the upper right bar graph of FIG. 20B, the bars correspond to DMSO, Nut and JNJ+Nut, respectively. From left to right of the bottom bar graph of FIG. 20B, the bars correspond to DMSO, JNJ, Nut and JNJ+Nut, respectively. FIG. 20C. Me300, SK-MEL37, and B16 cells were treated as above (For B16 panel, 10 μM Nutlin3 was used) and sub-G1 proportion was analyzed. In (B) and (C), the bar graphs (mean±SD) were derived from three independent experiments. *p<0.05. FIG. 20D. Left panel: untreated B16 cells were subcutaneously injected into mice at day 1. […] Compound administration and tumor size measurement were repeated every two days from day 7 onwards. Bar graphs are shown as mean±SD (*p<0.05, n=6). FIG. 20E. […]
FIG. 22. […] Me300, SK-MEL37, and B16 cells were treated as described herein and sub-G1 cells were analyzed as described herein.

B16 melanoma = experiment: xenograft assay, untreated B16 cells, compounds given i.p.; assay type: in vivo, C57BL/6 mice; design: concentration or dose not given beside the values
Method: (§1) FIG. 20. Restoring p53 by inhibiting mdm2 and iASPP suppresses melanoma growth in vitro and in vivo. FIG. 20A. H1299 cells were treated with DMSO or 10 μM nocodazole in the presence or absence of 2 or 10 μM of mitosis-related kinase inhibitors as indicated. […] FIG. 20B. Left panel: representative p53 level after Nutlin3 treatment for 24 hours in a variety of cells. Right bar graphs show the sub-G1 proportion of WM278 after treatment as that described in FIG. 19B (in upper panel, 10 μM and 20 μM Nutlin3 were used in parallel for comparison). From left to right of the upper right bar graph of FIG. 20B, the bars correspond to DMSO, Nut and JNJ+Nut, respectively. From left to right of the bottom bar graph of FIG. 20B, the bars correspond to DMSO, JNJ, Nut and JNJ+Nut, respectively. FIG. 20C. Me300, SK-MEL37, and B16 cells were treated as above (For B16 panel, 10 μM Nutlin3 was used) and sub-G1 proportion was analyzed. In (B) and (C), the bar graphs (mean±SD) were derived from three independent experiments. *p<0.05. FIG. 20D. Left panel: untreated B16 cells were subcutaneously injected into mice at day 1. […] Compound administration and tumor size measurement were repeated every two days from day 7 onwards. Bar graphs are shown as mean±SD (*p<0.05, n=6). FIG. 20E. Lower panels show representative images of isolated tumors. Right panel: representative H & E staining in B16 tumor section. Bar=20 μm.
At day 1, C57BL/6 mice (7-9 weeks old) were injected s.c. at flanks with 1×10^6 B16 melanoma cells in 100 μl PBS (component treated cells for FIG. 19C, untreated cells for FIGS. 19D and 20D).

B16 melanoma cells [3] = experiment: xenograft assay, B16 cells treated in vitro and injected into C57BL/6 mice; assay type: in vivo; details: 13 days after injection of in vitro treated B16 cells
Method: At day 1, C57BL/6 mice (7-9 weeks old) were injected s.c. at flanks with 1×10^6 B16 melanoma cells in 100 μl PBS (component treated cells for FIG. 19C, untreated cells for FIGS. 19D and 20D). Component (Nutlin3 (40 mg/kg) or JNJ-7706621 (also referred to herein as “JNJ”, 30 mg/kg)) was dissolved in DMSO and i.p. administered every two days since day 3, or day 7 (no component administration for FIG. 19C). Tumor size was measured every two days with vernier caliper. Tumor volumes were calculated using the following formula: (L*W*W)/2, in which L represents the larger diameter of the tumor, and W represents the smaller diameter. On day 13 (tumor area reach ˜1.2 cm diameter in DMSO group), all mice were sacrificed and tumors were isolated and weighed.
Mouse B16 melanoma cells are known to form highly aggressive melanoma in vivo in immune competent C57BL/6 syngeneic mice. Because regulation of p53 by iASPP and mdm2 exists in both human WM278 cells and mouse B16 cells, experiments were carried out to determine if restoring p53 function in B16 cells is able to suppress tumor growth in C57BL/6 mice in vivo. B16 cells, treated with (1) DMSO, (2) Nutlin3, (3) JNJ, or (4) Nutlin3+JNJ, were injected into the flank of 7-9 week-old female C57BL/6 mice.

[4] = system: WM278, Me300 and SK-MEL37 melanoma cells; experiment: apoptosis by Annexin V / Sub-G1 FACS analysis, Example 10, human melanoma cells; assay type: cell-based; details: for apoptosis: agent alone, JNJ 0.4 μM, Nutlin3 10-20 μM, 72 hours, melanoma cell lines
Method: as §1
FIG. 21. Restoring apoptotic function of p53 cooperates with BRAFV600E inhibition to suppress human melanoma cell growth.

[5] = system: nuclear iASPP and p53 in B16 tumors; experiment: immunofluorescence staining of iASPP and p53 in B16 tumor sections; assay type: in vivo, C57BL/6 mice; details: tumor sections from i.p. treated mice
[6] = system: iASPP modification in H1299 cells; experiment: nocodazole-induced iASPP modification in H1299 cells, G2/M kinase inhibitor panel (immunoblotting); assay type: cell-based, human; details: panel of 15 G2/M kinase inhibitors, 2-10 μM, 10 μM nocodazole overnight
Method: FIG. 12. […] FIG. 12A. […] FIG. 12B. […] FIG. 12C.
FIG. 13. FIG. 13A. […] FIG. 13B.
FIG. 20. […] FIG. 20A. […] Bar=20 μm.
For WB, cells were lysed in buffer containing 8 M urea, 1 M thiourea, 0.5% CHAPS, 50 mM DTT, and 24 mM spermine. A total of 40 μg of protein extract was loaded per lane into SDS-polyacrylamide gels. Gels were transferred onto nitrocellulose membrane (Protran) and the resulting blots incubated first with primary antibody overnight at 4° C. and then with the appropriate secondary horseradish peroxidize-conjugated antibody (Dako). The results were visualized by enhanced chemiluminescent detection (Amersham Biosciences) using X-ray film (Fujifilm).

[7] = i.p. administration from day 3 after B16 inoculation
[8] = i.p. administration from day 7 after B16 inoculation

Structure (SMILES)	suppression of cell growth [1]	increase in Nutlin3-induced apoptosis (B16 melanoma cells [2])	suppression of B16 melanoma growth (B16 melanoma; [7]) [%]	suppression of B16 melanoma growth (B16 melanoma; [8]) [%]	tumor size and weight, of control (DMSO-treated B16 cell group) (B16 melanoma cells [3])	increase in Nutlin3-induced apoptosis ([4]; Me300 and WM278 cells, Annexin V or Sub-G1)	apoptosis [4]	iASPP expression in B16 tumors [5]	p53 expression in B16 tumors [5]	prevention of nocodazole-induced iASPP modification [6]
Nc1nc(Nc2ccc(S(N)(=O)=O)cc2)nn1C(=O)c1c(F)cccc1F [JNJ-7706621]	limited	3-4 fold	36	30	around 40%	3-4 fold	only a small percentage of cells	clearly reduced nuclear iASPP expression	no effect on p53 expression	most potent inhibitor of iASPP modification
COc1ccc(C2=N[C@@H](c3ccc(Cl)cc3)[C@@H](c3ccc(Cl)cc3)N2C(=O)N2CCNC(=O)C2)c(OC(C)C)c1 [Nutlin3]	limited	–	22	5	~60%	–	only a small percentage of cells	minimal impact on iASPP expression	induced nuclear p53 expression	–
